According to ChEMBL document CHEMBL6114997, “New curcumin derivative induces ferroptosis in MCF-7 cells through activating SLC7A11/GPX4 axis” (Bioorg Med Chem, 2025):

What was measured:
Assay type in all cases: functional, cell-based
MCF7 = assay: Antiproliferative activity against human MCF7 cells assessed as inhibition of cell growth by MTT assay
A549 = assay: Antiproliferative activity against human A549 cells assessed as inhibition of cell growth by MTT assay
HT-29 = assay: Antiproliferative activity against human HT-29 cells assessed as inhibition of cell growth by MTT assay
HepG2 = assay: Antiproliferative activity against human HepG2 cells assessed as inhibition of cell growth by MTT assay
HeLa = assay: Antiproliferative activity against human HeLa cells assessed as inhibition of cell growth by MTT assay

Row | IC50 (MCF7) | IC50 (A549) | IC50 (HT-29) | IC50 (HepG2) | IC50 (HeLa) | SMILES
1 | > 50 µM | > 50 µM | > 50 µM | > 50 µM | > 50 µM | COc1cc(/C=C/c2cc(/C=C/c3ccc(OCCCCO[N+](=O)[O-])c(OC)c3)n(-c3ccccn3)n2)ccc1OCCCCO[N+](=O)[O-]
2 | > 50 µM | > 50 µM | > 50 µM | > 50 µM | > 50 µM | COc1cc(/C=C/c2cc(/C=C/c3ccc(OCCCO[N+](=O)[O-])c(OC)c3)n(-c3ccc(C(F)(F)F)cc3)n2)ccc1OCCCO[N+](=O)[O-]
3 | 19.9 µM | 24.6 µM | 22.9 µM | > 50 µM | > 50 µM | COc1cc(/C=C/C(=O)CC(=O)/C=C/c2ccc(O)c(OC)c2)ccc1O [CURCUMIN]
4 | > 50 µM | > 50 µM | > 50 µM | > 50 µM | > 50 µM | COc1cc(/C=C/c2cc(/C=C/c3ccc(OCCO[N+](=O)[O-])c(OC)c3)n(-c3ccc(F)cc3)n2)ccc1OCCO[N+](=O)[O-]
5 | > 50 µM | > 50 µM | > 50 µM | > 50 µM | > 50 µM | COc1cc(/C=C/c2cc(/C=C/c3ccc(OCCCCO[N+](=O)[O-])c(OC)c3)n(-c3ccccc3)n2)ccc1OCCCCO[N+](=O)[O-]
6 | > 50 µM | > 50 µM | > 50 µM | > 50 µM | > 50 µM | COc1cc(/C=C/c2cc(/C=C/c3ccc(OCCCCO[N+](=O)[O-])c(OC)c3)n(-c3ccc(C(F)(F)F)cc3)n2)ccc1OCCCCO[N+](=O)[O-]
7 | > 50 µM | > 50 µM | > 50 µM | > 50 µM | > 50 µM | COc1cc(/C=C/c2cc(/C=C/c3ccc(OCCCO[N+](=O)[O-])c(OC)c3)n(-c3ccccn3)n2)ccc1OCCCO[N+](=O)[O-]
8 | > 50 µM | > 50 µM | > 50 µM | > 50 µM | > 50 µM | COc1cc(/C=C/c2cc(/C=C/c3ccc(OCCCO[N+](=O)[O-])c(OC)c3)n(-c3ccccc3F)n2)ccc1OCCCO[N+](=O)[O-]
9 | > 50 µM | > 50 µM | > 50 µM | > 50 µM | > 50 µM | COc1cc(/C=C/c2cc(/C=C/c3ccc(OCC4CC4)c(OC)c3)n(-c3ccc(C(=O)OCCCO[N+](=O)[O-])cc3)n2)ccc1OCC1CC1
10 | > 50 µM | > 50 µM | > 50 µM | > 50 µM | > 50 µM | COc1cc(/C=C/c2cc(/C=C/c3ccc(OCCO[N+](=O)[O-])c(OC)c3)n(-c3ccccc3F)n2)ccc1OCCO[N+](=O)[O-]
11 | > 50 µM | > 50 µM | > 50 µM | > 50 µM | > 50 µM | COc1cc(/C=C/c2cc(/C=C/c3ccc(OCCCCO[N+](=O)[O-])c(OC)c3)n(-c3ccc(F)cc3)n2)ccc1OCCCCO[N+](=O)[O-]
12 | > 50 µM | > 50 µM | > 50 µM | > 50 µM | > 50 µM | COc1cc(/C=C/c2cc(/C=C/c3ccc(OCCCO[N+](=O)[O-])c(OC)c3)n(Cc3ccccc3)n2)ccc1OCCCO[N+](=O)[O-]
13 | > 50 µM | > 50 µM | > 50 µM | > 50 µM | > 50 µM | COc1cc(/C=C/c2cc(/C=C/c3ccc(OCC4CC4)c(OC)c3)n(-c3ccc(C(=O)OCCCCO[N+](=O)[O-])cc3)n2)ccc1OCC1CC1
